# According to ChEMBL document CHEMBL1201862, “PubChem BioAssay data set” (2004):
#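 Following 48 hours of exposure in 96-well plates, responses at five concentrations were used to interpolate endpoints linearly. GI50 is the concentration that inhibits growth by half.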 Activity calls are given as the source filed them. Cut-off read from the data, not from the text of the source: active = GI50 up to about 1.1 µM and inactive = higher.
# Legend:
# Test in all cases: DTP human tumour cell line panel, 48 h
# 786-0 = tested on: 786-0
# A498 = tested on: A498
# CAKI-1 = tested on: CAKI-1
# DMS-114 = tested on: DMS-114
# HL-60 = tested on: HL-60
# HOP-62 = tested on: HOP-62
# HT-29 = tested on: HT-29
# KM-20L2 = tested on: KM-20L2
# KM12 = tested on: KM12
# M14 = tested on: M14
# OVCAR-3 = tested on: OVCAR-3
# OVCAR-8 = tested on: OVCAR-8
# RPMI-8226 = tested on: RPMI-8226
# SF-295 = tested on: SF-295
# SK-MEL-28 = tested on: SK-MEL-28
# SNB-78 = tested on: SNB-78
# SW-620 = tested on: SW-620
# TK-10 = tested on: TK-10
# UACC-62 = tested on: UACC-62
# MDA-N = tested on: MDA-N
Structure (SMILES),GI50 (786-0),GI50 (A498),GI50 (CAKI-1),GI50 (DMS-114),GI50 (HL-60),GI50 (HOP-62),GI50 (HT-29),GI50 (KM-20L2),GI50 (KM12),GI50 (M14),GI50 (OVCAR-3),GI50 (OVCAR-8),GI50 (RPMI-8226),GI50 (SF-295),GI50 (SK-MEL-28),GI50 (SNB-78),GI50 (SW-620),GI50 (TK-10),GI50 (UACC-62),GI50 (MDA-N)
C[n+]1cn(CC(=O)c2ccccc2)c(C(N)=O)c1N,43.7 µM (inactive),> 100 µM (inactive),> 100 µM (inactive),25 µM (inactive),0.337 µM (active),> 100 µM (inactive),> 100 µM (inactive),> 100 µM (inactive),> 100 µM (inactive),> 100 µM (inactive),> 100 µM (inactive),> 100 µM (inactive),45.1 µM (inactive),> 100 µM (inactive),> 100 µM (inactive),> 100 µM (inactive),11 µM (inactive),> 100 µM (inactive),> 100 µM (inactive),–
O/N=C1\C(=C\c2ccc3c(c2)OCCO3)CCCC1C(NO)c1ccc2c(c1)OCCO2 (centres undefined),32.1 µM (inactive),16 µM (inactive),32.4 µM (inactive),20.1 µM (inactive),14.7 µM (inactive),22 µM (inactive),17.5 µM (inactive),19 µM (inactive),21.4 µM (inactive),17.7 µM (inactive),18.3 µM (inactive),31.4 µM (inactive),16.3 µM (inactive),31 µM (inactive),18.5 µM (inactive),33.9 µM (inactive),32.2 µM (inactive),24.2 µM (inactive),16.5 µM (inactive),–
N#CC(C(=O)CCCC(=O)Nc1ccccc1[N+](=O)[O-])c1c(Cl)cccc1Cl (centres undefined),> 100 µM (inactive),> 100 µM (inactive),> 100 µM (inactive),> 100 µM (inactive),99.1 µM (inactive),> 100 µM (inactive),> 100 µM (inactive),> 100 µM (inactive),> 100 µM (inactive),> 100 µM (inactive),> 100 µM (inactive),> 100 µM (inactive),> 100 µM (inactive),> 100 µM (inactive),> 100 µM (inactive),> 100 µM (inactive),> 100 µM (inactive),> 100 µM (inactive),> 100 µM (inactive),–
CCN(CC)c1ccc(/N=N/c2ccc(-c3nc4cccnc4o3)cc2)cc1,> 100 µM (inactive),> 100 µM (inactive),> 100 µM (inactive),> 100 µM (inactive),> 100 µM (inactive),> 100 µM (inactive),> 100 µM (inactive),> 100 µM (inactive),> 100 µM (inactive),> 100 µM (inactive),> 100 µM (inactive),> 100 µM (inactive),> 100 µM (inactive),> 100 µM (inactive),> 100 µM (inactive),> 100 µM (inactive),> 100 µM (inactive),> 100 µM (inactive),> 100 µM (inactive),–
CC(CC(=O)Nc1ccc(NC(=O)CC(C)/N=N\C(N)=S)cc1)/N=N\C(N)=S (centres undefined),> 100 µM (inactive),> 100 µM (inactive),> 100 µM (inactive),53.7 µM (inactive),> 100 µM (inactive),> 100 µM (inactive),> 100 µM (inactive),> 100 µM (inactive),> 100 µM (inactive),> 100 µM (inactive),> 100 µM (inactive),> 100 µM (inactive),> 100 µM (inactive),> 100 µM (inactive),> 100 µM (inactive),> 100 µM (inactive),–,> 100 µM (inactive),> 100 µM (inactive),–
Cc1c(OCCCOc2ccc3c(=O)cc(-c4ccccc4)oc3c2C)ccc2c(=O)cc(-c3ccccc3)oc12,> 100 µM (inactive),> 100 µM (inactive),> 100 µM (inactive),> 100 µM (inactive),41.4 µM (inactive),61.1 µM (inactive),> 100 µM (inactive),> 100 µM (inactive),> 100 µM (inactive),> 100 µM (inactive),> 100 µM (inactive),> 100 µM (inactive),> 100 µM (inactive),> 100 µM (inactive),> 100 µM (inactive),51.2 µM (inactive),> 100 µM (inactive),> 100 µM (inactive),> 100 µM (inactive),–
Cc1ccccc1C(=O)c1cc(O)ccc1O,> 100 µM (inactive),> 100 µM (inactive),> 100 µM (inactive),45.7 µM (inactive),31.8 µM (inactive),> 100 µM (inactive),35.9 µM (inactive),32.6 µM (inactive),43 µM (inactive),> 100 µM (inactive),> 100 µM (inactive),> 100 µM (inactive),> 100 µM (inactive),> 100 µM (inactive),–,> 100 µM (inactive),37.1 µM (inactive),> 100 µM (inactive),65 µM (inactive),–
CN(C)C(=S)/N=c1\ss/c(=N\C(=S)N(C)C)n1-c1cccc(Cl)c1,> 100 µM (inactive),> 100 µM (inactive),> 100 µM (inactive),> 100 µM (inactive),> 100 µM (inactive),> 100 µM (inactive),> 100 µM (inactive),> 100 µM (inactive),> 100 µM (inactive),> 100 µM (inactive),> 100 µM (inactive),> 100 µM (inactive),> 100 µM (inactive),> 100 µM (inactive),> 100 µM (inactive),> 100 µM (inactive),> 100 µM (inactive),> 100 µM (inactive),> 100 µM (inactive),–
Cn1cc2ccccc2c1-c1nc(F)nc(F)n1,> 100 µM (inactive),> 100 µM (inactive),> 100 µM (inactive),> 100 µM (inactive),45.5 µM (inactive),> 100 µM (inactive),> 100 µM (inactive),> 100 µM (inactive),63.5 µM (inactive),> 100 µM (inactive),> 100 µM (inactive),–,33 µM (inactive),> 100 µM (inactive),> 100 µM (inactive),> 100 µM (inactive),> 100 µM (inactive),> 100 µM (inactive),–,–
CCC1(Br)C(=O)NC(=O)N(C2CC(O)C(CO)O2)C1N=[N+]=[N-] (centres undefined),> 100 µM (inactive),> 100 µM (inactive),> 100 µM (inactive),72.1 µM (inactive),> 100 µM (inactive),> 100 µM (inactive),> 100 µM (inactive),> 100 µM (inactive),–,> 100 µM (inactive),> 100 µM (inactive),> 100 µM (inactive),> 100 µM (inactive),> 100 µM (inactive),> 100 µM (inactive),> 100 µM (inactive),> 100 µM (inactive),> 100 µM (inactive),> 100 µM (inactive),–
CC1=CC2C(C=C1)S(=O)(=O)N1CC21c1ccccc1 (centres undefined),> 100 µM (inactive),> 100 µM (inactive),44.2 µM (inactive),21.4 µM (inactive),> 100 µM (inactive),> 100 µM (inactive),> 100 µM (inactive),> 100 µM (inactive),> 100 µM (inactive),> 100 µM (inactive),> 100 µM (inactive),> 100 µM (inactive),> 100 µM (inactive),> 100 µM (inactive),> 100 µM (inactive),> 100 µM (inactive),> 100 µM (inactive),> 100 µM (inactive),64.6 µM (inactive),–
COc1ccc(CCc2cc(OC)c(OC)c(OC)c2)cc1,0.15 µM (active),< 0.0207 µM (active),0.0206 µM (active),0.0248 µM (active),0.014 µM (active),0.0196 µM (active),0.0235 µM (active),0.0128 µM (active),0.0118 µM (active),0.0318 µM (active),0.02 µM (active),0.1 µM (active),0.0309 µM (active),0.0178 µM (active),0.183 µM (active),0.0169 µM (active),0.0171 µM (active),2.64 µM (inactive),0.0165 µM (active),< 0.01 µM (active)
